Measurements: patent US20260166128A1, “HUMAN AMYLIN ANALOG, AND DERIVATIVE THEREOF AND USE THEREOF” (priority 2022, published 2026)
Numbered stars: 1 amine (or outer) side, 2 acyl side, 3 side chain; on linkers, the order of the positions; unused ones are H or OH. Bridge positions count the residues as written; N and C are the ends. Square brackets hold non-standard residues; d marks the D form. Side chains are listed from the residue outwards. Peptide text beside a SMILES is read from it. * marks the point of attachment. C20 diacid = O=C(O)CCCCCCCCCCCCCCCCCCC(=O)*; γGlu = O=C(O)[C@H](CCC(=O)[*:2])N[*:1]; Aad = N[C@@H](CCCC(=O)O)C(=O)O; Orn = NCCC[C@H](N)C(=O)O; Dab = NCC[C@H](N)C(=O)O; Dap = NC[C@H](N)C(=O)O

Tests used:
[1] = biological target: T1, human amylin receptor (Homo sapiens, UniProt O60896+P30988); assay: Luciferase assay of amylin derivatives in amylin receptor/CRE-luc CHO cell line; assay type: cell-based; details: CHO-K1/Ga15/AMY3 CRE-luc cells, 24 hours incubation, F12 medium containing 10% FBS; read-out: EC50
T1 construct: host or cells: CHO-K1/Ga15/AMY3 cells, further stably transfected with a CRE-luciferase plasmid
T1 sequence (P30988 25-474): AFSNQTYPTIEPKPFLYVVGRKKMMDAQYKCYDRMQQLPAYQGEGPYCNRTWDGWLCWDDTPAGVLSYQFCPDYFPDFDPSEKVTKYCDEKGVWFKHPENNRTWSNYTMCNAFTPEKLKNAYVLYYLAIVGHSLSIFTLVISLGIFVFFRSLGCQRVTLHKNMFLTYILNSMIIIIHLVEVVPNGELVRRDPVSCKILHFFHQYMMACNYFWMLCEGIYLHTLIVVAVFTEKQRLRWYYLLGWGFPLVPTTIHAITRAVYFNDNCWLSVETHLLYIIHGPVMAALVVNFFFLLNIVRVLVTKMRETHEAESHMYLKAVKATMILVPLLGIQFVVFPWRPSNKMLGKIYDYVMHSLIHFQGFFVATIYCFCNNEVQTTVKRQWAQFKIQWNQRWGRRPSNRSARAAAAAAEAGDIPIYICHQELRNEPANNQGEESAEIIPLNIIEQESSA
T1 sequence (O60896 24-148 partner): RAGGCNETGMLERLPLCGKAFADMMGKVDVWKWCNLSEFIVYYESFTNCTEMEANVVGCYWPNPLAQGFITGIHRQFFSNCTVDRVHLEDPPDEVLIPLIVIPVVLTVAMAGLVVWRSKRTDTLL
Description: The experiment was intended to detect the activity or efficacy of the amylin derivatives on a human amylin receptor in vitro by luciferase assay.
50 μL of growth medium (F12 medium containing 10% FBS) was added into each well of a white 96-well plate, and the stably transfected amylin/CRE-lue CHO cells were inoculated into the white 96-well plate at a density of about 20,000 cells/well for activity determination.

[2] = Freeze-thaw stability of derivatives (freeze-thaw yield by liquid chromatography); assay type: physicochemical; details: for Dissolution property: appearance after dissolution at 0.2 mg/ml in 20 mM phosphate buffer solution (PB) (pH 7.0); for Freeze storage property: appearance after overnight storage at −20° C. and thawing to room temperature, 0.2 mg/ml in 20 mM PB (pH 7.0); for Freeze storage yield: concentration of polypeptide after freezing and thawing / concentration before, by liquid chromatography, −20° C. overnight
Outline: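 Lyophilised peptide derivative dissolved at 0.2 mg/ml in 20 mM phosphate buffer, pH 7.0, frozen overnight at −20° C, then thawed at room temperature. Peptide concentration before and after freeze-thaw measured by reversed-phase HPLC on centrifuged supernatant; yield = post-thaw/pre-thaw concentration.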

| SMILES | EC50 [1] | Dissolution property [2] | Freeze storage property [2] | Freeze storage yield [2] |
| --- | --- | --- | --- | --- |
| CC[C@H](C)[C@H](NC(=O)[C@@H]1CCCN1C(=O)[C@H](CCCCNC(=O)CC[C@H](NC(=O)CCCCCCCCCCCCCCCCCCC(=O)O)C(=O)O)NC(=O)[C@H](CC(C)C)NC(=O)[C@H](CC(N)=O)NC(=O)[C@H](CC(N)=O)NC(=O)[C@H](CO)NC(=O)[C@H](CO)NC(=O)[C@H](Cc1c[nH]cn1)NC(=O)[C@H](CCCNC(=N)N)NC(=O)[C@H](CC(C)C)NC(=O)[C@H](Cc1ccccc1)NC(=O)[C@H](CCCC(=O)O)NC(=O)[C@H](C)NC(=O)[C@H](CC(C)C)NC(=O)[C@H](CCCNC(=N)N)NC(=O)[C@H](CCC(N)=O)NC(=O)[C@@H](NC(=O)[C@H](C)NC(=O)[C@@H]1CSSC[C@H](NC(=O)[C@@H](N)CCCNC(=N)N)C(=O)N[C@@H](CC(N)=O)C(=O)N[C@@H]([C@@H](C)O)C(=O)N[C@@H](C)C(=O)N[C@@H]([C@@H](C)O)C(=O)N1)[C@@H](C)O)C(=O)N[C@@H](CC(C)C)C(=O)N1CCC[C@H]1C(=O)N1CCC[C@H]1C(=O)N[C@H](C(=O)N[C@@H](CC(N)=O)C(=O)N[C@H](C(=O)NCC(=O)N[C@@H](CO)C(=O)N[C@@H](CC(N)=O)C(=O)N[C@H](C(=O)N1CCC[C@H]1C(N)=O)[C@@H](C)O)C(C)C)[C@@H](C)O [PD043] (H-RCNTATCATQRLA[Aad]FLRHSSNNLK([γGlu-C20 diacid])PILPPTNVGSNTP-NH2; disulfide 2-7 (inferred); N-terminus assumed) | 1.13 nM | Clear | Clear | 49.45% |
| CC[C@H](C)[C@H](NC(=O)[C@@H]1CCCN1C(=O)[C@H](CCCCNC(=O)CC[C@H](NC(=O)CCCCCCCCCCCCCCCCCCC(=O)O)C(=O)O)NC(=O)[C@H](CC(C)C)NC(=O)[C@H](CC(N)=O)NC(=O)[C@H](CC(N)=O)NC(=O)[C@H](CO)NC(=O)[C@H](CO)NC(=O)[C@H](Cc1c[nH]cn1)NC(=O)[C@H](CCCNC(=N)N)NC(=O)[C@H](CC(C)C)NC(=O)[C@H](Cc1ccccc1)NC(=O)[C@H](CCN)NC(=O)[C@H](C)NC(=O)[C@H](CC(C)C)NC(=O)[C@H](CCCNC(=N)N)NC(=O)[C@H](CCC(N)=O)NC(=O)[C@@H](NC(=O)[C@H](C)NC(=O)[C@@H]1CSSC[C@H](NC(=O)[C@@H](N)CCCNC(=N)N)C(=O)N[C@@H](CC(N)=O)C(=O)N[C@@H]([C@@H](C)O)C(=O)N[C@@H](C)C(=O)N[C@@H]([C@@H](C)O)C(=O)N1)[C@@H](C)O)C(=O)N[C@@H](CC(C)C)C(=O)N1CCC[C@H]1C(=O)N1CCC[C@H]1C(=O)N[C@H](C(=O)N[C@@H](CC(N)=O)C(=O)N[C@H](C(=O)NCC(=O)N[C@@H](CO)C(=O)N[C@@H](CC(N)=O)C(=O)N[C@H](C(=O)N1CCC[C@H]1C(N)=O)[C@@H](C)O)C(C)C)[C@@H](C)O [PD044] (H-RCNTATCATQRLA[Dab]FLRHSSNNLK([γGlu-C20 diacid])PILPPTNVGSNTP-NH2; disulfide 2-7 (inferred)) | 2.62 nM | Clear | Clear | 84.90% |
| CC[C@H](C)[C@H](NC(=O)[C@@H]1CCCN1C(=O)[C@H](CCCCNC(=O)CC[C@H](NC(=O)CCCCCCCCCCCCCCCCCCC(=O)O)C(=O)O)NC(=O)[C@H](CC(C)C)NC(=O)[C@H](CC(N)=O)NC(=O)[C@H](CC(N)=O)NC(=O)[C@H](CO)NC(=O)[C@H](CO)NC(=O)[C@H](Cc1c[nH]cn1)NC(=O)[C@H](CCCNC(=N)N)NC(=O)[C@H](CC(C)C)NC(=O)[C@H](Cc1ccccc1)NC(=O)[C@H](CN)NC(=O)[C@H](C)NC(=O)[C@H](CC(C)C)NC(=O)[C@H](CCCNC(=N)N)NC(=O)[C@H](CCC(N)=O)NC(=O)[C@@H](NC(=O)[C@H](C)NC(=O)[C@@H]1CSSC[C@H](NC(=O)[C@@H](N)CCCNC(=N)N)C(=O)N[C@@H](CC(N)=O)C(=O)N[C@@H]([C@@H](C)O)C(=O)N[C@@H](C)C(=O)N[C@@H]([C@@H](C)O)C(=O)N1)[C@@H](C)O)C(=O)N[C@@H](CC(C)C)C(=O)N1CCC[C@H]1C(=O)N1CCC[C@H]1C(=O)N[C@H](C(=O)N[C@@H](CC(N)=O)C(=O)N[C@H](C(=O)NCC(=O)N[C@@H](CO)C(=O)N[C@@H](CC(N)=O)C(=O)N[C@H](C(=O)N1CCC[C@H]1C(N)=O)[C@@H](C)O)C(C)C)[C@@H](C)O [PD045] (H-RCNTATCATQRLA[Dap]FLRHSSNNLK([γGlu-C20 diacid])PILPPTNVGSNTP-NH2; disulfide 2-7 (inferred); N-terminus assumed) | 0.364 nM | Clear | Clear | 95.59% |
| CC[C@H](C)[C@H](NC(=O)[C@@H]1CCCN1C(=O)[C@H](CCCCNC(=O)CC[C@H](NC(=O)CCCCCCCCCCCCCCCCCCC(=O)O)C(=O)O)NC(=O)[C@H](CC(C)C)NC(=O)[C@H](CC(N)=O)NC(=O)[C@H](CC(N)=O)NC(=O)[C@H](CO)NC(=O)[C@H](CO)NC(=O)[C@H](Cc1c[nH]cn1)NC(=O)[C@H](CCCN)NC(=O)[C@H](CC(C)C)NC(=O)[C@H](Cc1ccccc1)NC(=O)[C@H](CCC(=O)O)NC(=O)[C@H](C)NC(=O)[C@H](CC(C)C)NC(=O)[C@H](CCCNC(=N)N)NC(=O)[C@H](CCC(N)=O)NC(=O)[C@@H](NC(=O)[C@H](C)NC(=O)[C@@H]1CSSC[C@H](NC(=O)[C@@H](N)CCCNC(=N)N)C(=O)N[C@@H](CC(N)=O)C(=O)N[C@@H]([C@@H](C)O)C(=O)N[C@@H](C)C(=O)N[C@@H]([C@@H](C)O)C(=O)N1)[C@@H](C)O)C(=O)N[C@@H](CC(C)C)C(=O)N1CCC[C@H]1C(=O)N1CCC[C@H]1C(=O)N[C@H](C(=O)N[C@@H](CC(N)=O)C(=O)N[C@H](C(=O)NCC(=O)N[C@@H](CO)C(=O)N[C@@H](CC(N)=O)C(=O)N[C@H](C(=O)N1CCC[C@H]1C(N)=O)[C@@H](C)O)C(C)C)[C@@H](C)O [PD046] (H-RCNTATCATQRLAEFL[Orn]HSSNNLK([γGlu-C20 diacid])PILPPTNVGSNTP-NH2; disulfide 2-7 (inferred); N-terminus assumed) | 1.68 nM | Clear | Clear | 101.35% |
| CC[C@H](C)[C@H](NC(=O)[C@@H]1CCCN1C(=O)[C@H](CCCCNC(=O)CC[C@H](NC(=O)CCCCCCCCCCCCCCCCCCC(=O)O)C(=O)O)NC(=O)[C@H](CC(C)C)NC(=O)[C@H](CC(N)=O)NC(=O)[C@H](CC(N)=O)NC(=O)[C@H](CO)NC(=O)[C@H](CO)NC(=O)[C@H](Cc1c[nH]cn1)NC(=O)[C@H](CCCNC(=N)N)NC(=O)[C@H](CC(C)C)NC(=O)[C@H](Cc1ccccc1)NC(=O)[C@H](CCC(=O)O)NC(=O)[C@H](C)NC(=O)[C@H](CC(C)C)NC(=O)[C@H](CCCNC(=N)N)NC(=O)[C@H](CCC(N)=O)NC(=O)[C@@H](NC(=O)[C@H](C)NC(=O)[C@@H]1CSSC[C@H](NC(=O)[C@@H](N)CCCNC(=N)N)C(=O)N[C@@H](CC(N)=O)C(=O)N[C@@H]([C@@H](C)O)C(=O)N[C@@H](C)C(=O)N[C@@H]([C@@H](C)O)C(=O)N1)[C@@H](C)O)C(=O)N[C@@H](CC(C)C)C(=O)N1CCC[C@H]1C(=O)N1CCC[C@H]1C(=O)N[C@H](C(=O)N[C@@H](CC(N)=O)C(=O)N[C@H](C(=O)NCC(=O)N[C@@H](CO)C(=O)N[C@@H](CC(N)=O)C(=O)N[C@H](C(=O)N1CCC[C@H]1C(N)=O)[C@@H](C)O)C(C)C)[C@@H](C)O [PD047] (H-RCNTATCATQRLAEFLRHSSNNLK([γGlu-C20 diacid])PILPPTNVGSNTP-NH2; disulfide 2-7 (inferred); N-terminus assumed) | 0.073 nM | – | – | 0.00% |
